{
  "source": "patent US12268671B2",
  "about": "“IL-8 inhibitors for use in the treatment of chemotherapy-induced peripheral neuropathy” (DOMPÉ FARMACEUTICI S.P.A., priority 2016, dated 2025)",
  "key": {"F-11 cell line": {"test_system": "F-11 cell line", "assay": "Paclitaxel-induced cytoskeleton modifications, immunofluorescence in differentiated F11 neurons", "type": "cell-based, mouse/rat", "conditions": "24 hours", "protocol": "In this study, the effects of paclitaxel, administered alone or in combination with reparixin (DF1681Y; R-(−)-2-(4-isobutylphenyl)propionyl methanesulfonamide) dissolved in aqueous solution of lysine to form the in situ salt, on the cytoskeleton components and organization was performed. As experimental model, a F-11 cell line, a fusion product of mouse neuroblastoma cell line N18TG-2 cells with embryonic rat dorsal root ganglia sensory neurons, was used. These cells were selected because of the presence of neuronal markers and properties that are unique to the parental rat sensory neurons.\nF11 (ECACC, Salisbury, UK) cells were cultivated DMEM (Euroclone, MI, Italy) medium supplemented with 10% FBS, USA origin, (Sigma-Aldrich St. Louis, CO, USA), 1% penicillin/streptomycin (Euroclone) and 1% glutamine (Euroclone). After, cells were differentiated with mouse NGF (mNGF) dissolved in DMEM with 1% penicillin/streptomycin and 1% glutamine (FBS free) at the final concentration 50 ng/ml. Medium was replaced every 3 days until complete differentiation, occurred after 7 days. Neurons were not treated (controls) or treated for 24 hours with reparixin [10 μM final concentration], paclitaxel (Sigma-Aldrich) [10 nM final concentration] and the combination of the two molecules.\nCells were fixed in paraformaldehyde 4% in PBS for 20 min at RT and permeabilized in methanol for 5 min at −20° C. Cells were then blocked with PBS containing 4% BSA for 30 min and incubated with primary antibodies diluted in the blocking solution overnight at 4° C.: rabbit β-tubulin (Abcam, Cambridge, UK) 1:500; mouse α-tubulin (Abcam) 1:200 and mouse α-tubulin acetylated (Abcam) 1:1000. Cells were then rinsed in PBS several times before incubation with secondary antibodies, goat anti rabbit conjugated with Alexafluor 633 (1:2000), and goat anti mouse conjugated with Alexafluor 488 (1:2000), (Life Technologies, CA, USA) for 30 min at RT. After extensive washing coverslips were mounted with Vectashield mounting medium with DAPI (Vector Laboratories Burlingame, CA, USA) and then observed at confocal laser microscope."}, "Male Wistar rats [1]": {"test_system": "Male Wistar rats", "assay": "Paclitaxel-induced cold allodynia (acetone test)", "type": "in vivo, rat", "conditions": "paclitaxel model", "protocol": "(§1) Male Wistar rats (200-250 g, Harlan Italy) were housed in a room with controlled temperature (22±1° C.), humidity (60±10%) and light (12 h per day); food and water were available ad libitum.\n(§2) The rats received: • 1—four once a day intraperitoneal (i.p.) injections of either paclitaxel (Tocris, Italy) (2 mg/kg/day i.p.; cumulative dose of 8 mg/kg i.p.) or vehicle (saline, 1 ml/kg/day i.p.), administered on alternate days (days 0, 2, 4, and 6), as described in Polomano et al, Pain 2001, 94:293-294. Behavioral testing was performed prior to paclitaxel/vehicle administration (day-1), and again on days 5-7-10-14 following paclitaxel/vehicle injection; • or • 2—oxaliplatin (2.4 mg/kg) dissolved in 5% glucose solution which was administered intraperitoneally (i.p.) at a volume of 0.5 mL/rat, for 5 consecutive days every week for 3 weeks, as described in Cavaletti et al., Eur. J. Cancer, 2001 37, 2457-63. Behavioral testing was performed before oxaliplatin/vehicle administration (day-1), and at again on day 3-5-7-10-14-21 day following oxaliplatin/vehicle injection.\n(§3) DF2726A (30 mg/kg) (5 mg/1 ml, 0.5 ml/os/rat) was dissolved in 10% SOLUTOL-HS15 and N-methylpyrrolidone (NMP) (SOLUTOL:NMP 2:1 w/v) and 90% PBS 1×, and was administered once a day from day −3 up to day 11 after paclitaxel administration. Anti-allodynic effects were assessed on day 5, 7, 10 and 14 after paclitaxel administration. Control animals received vehicle (10% SOLUTOL-NMP 2:1 w/v and PBS, 5 mg/1 ml; 0.5 m1/os/rat).\n(§4) DF1681B was administered by continuous subcutaneous infusion using the ALZET osmotic pumps Model 2ML2 (Charles River). In details, DF1681B (9.37 g) was dissolved in sterile saline (25 ml) at a concentration of 375 mg/ml and vortexed for 10 min. Osmotic pumps were implanted under anesthesia (100 mg/kg ketamine and 10 mg/kg xylazine i.p.) through a surgical incision between the scapulae. Pumps were implanted 3 days before first paclitaxel injection (day-3). Drug delivery was carried out continuously until day +11. Control animals received vehicle (sterile saline).\n(§5) Cold sensitivity was measured as the number of foot withdrawal responses after application of acetone to the dorsal surface of the paw (2). A drop of acetone was applied to the dorsal surface of paws with a syringe connected to a thin polyethylene tube while the rats was standing on a metal mesh. […] Cold responses were measured on both paws before (day −1) and, then on 5, 7, 10 and 14 days after paclitaxel/vehicle administration or on days 0, 5, 7, 10, 14 and 21 after oxalipaltin/vehicle administration.\n(§6) All data were presented as the mean±SEM. The significance of differences between groups was determined by two-way analyses of variance (ANOVA) followed by Bonferroni post hoc tests for multiple comparisons. […]"}, "Male Wistar rats [2]": {"test_system": "Male Wistar rats", "assay": "Oxaliplatin-induced cold allodynia (acetone test)", "type": "in vivo, rat", "conditions": "oxaliplatin model", "protocol": "as §1, §2\nDF2726A (30 mg/kg/os) was dissolved in PBS and it was administrated, for 24 consecutive days starting 3 days before oxaliplatin administration and continuing for other 21 days after the first administration of oxaliplatin. During this period the compound was given 2 h after oxaliplatin treatment. Since DF2726A is a sodium salt it was dissolved at the concentration of 16 mg/ml, to reach the active drug dose of 30 mg/kg.\nDF1681B was administered by continuous subcutaneous infusion using the ALZET osmotic pumps Model 2ML2 (Charles River). In order to obtain a rate of infusion of 8 mg/hr/kg as described by Cavalieri et al Int J Immunopathol Pharmacol, 2005, 18:475-86, DF1681B (9.37 g) was dissolved in sterile saline (25 ml) at a concentration of 375 mg/ml and vortexed for 10 min. Osmotic pumps were implanted under anesthesia (100 mg/kg ketamine and 10 mg/kg xylazine i.p.). Pumps were prepared according to Alzet instructions sheet. Briefly, pumps were filled with 2 ml of DF1681B solution or vehicle using sterile syringe. Finally, pumps were kept in water bath overnight in stove at 37° C. […]\nas §5, with “(2).” for “(2). A drop of acetone was applied to the dorsal surface of paws with a syringe connected to a thin polyethylene tube while the rats was standing on a metal mesh.”\nas §6"}, "Male Wistar rats [3]": {"test_system": "Male Wistar rats", "assay": "Oxaliplatin-induced mechanical allodynia (Dynamic Plantar Aesthesiometer)", "type": "in vivo, rat", "conditions": "oxaliplatin model, days 14 and 21", "protocol": "as §1\nas §2, with “Behavioral testing was performed before oxaliplatin/vehicle administration (day-1), and at again on day 3-5-7-10-14-21 day following oxaliplatin/vehicle injection.” left out\nTo assess the development of mechanical allodynia, sensitivity to tactile stimulation was measured using the Dynamic Plantar Aesthesiometer (DPA, Ugo Basile, Italy). […]\nas §6"}, "Male Wistar rats [4]": {"test_system": "Male Wistar rats", "assay": "Paclitaxel-induced mechanical allodynia (Dynamic Plantar Aesthesiometer)", "type": "in vivo, rat", "conditions": "paclitaxel model", "protocol": "as §1, §2, §3, §4\nTo assess the development of mechanical allodynia, sensitivity to tactile stimulation was measured using the Dynamic Plantar Aesthesiometer (DPA, Ugo Basile, Italy). Animals were placed in a chamber with a mesh metal floor covered by a plastic dome that enabled the animal to walk freely, but not to jump. The mechanical stimulus were then delivered in the mid-plantar skin of the hind paw. The cut-off was fixed at 50 g. […]\nas §6"}, "[5]": {"conditions": "DF1681B continuous subcutaneous infusion from day -3 to day +11, day 14"}, "[6]": {"conditions": "DF2726A 30 mg/kg os once a day from day -3 to day 11, day 14 (after end of treatment)"}, "[7]": {"conditions": "DF2726A 30 mg/kg os once a day from day -3 to day 11, days 5 (P<0.05), 7 (P<0.001), 10 (P<0.001)"}, "[8]": {"conditions": "reparixin 10 μM in combination with paclitaxel 10 nM"}},
  "data": [
    {"smiles": "CC(=O)O[C@H]1C(=O)[C@@]2(C)[C@H]([C@H](OC(=O)c3ccccc3)[C@]3(O)C[C@H](OC(=O)[C@H](O)[C@@H](NC(=O)c4ccccc4)c4ccccc4)C(C)=C1C3(C)C)[C@]1(OC(C)=O)CO[C@@H]1C[C@@H]2O", "note": "[paclitaxel, reference compound]", "values": [
      {"measurement": "acetylated α-tubulin (marker of stable microtubules), immunofluorescence", "setting": "F-11 cell line; paclitaxel 10 nM alone", "value": "increased acetylated α-tubulin"},
      {"measurement": "fluorescence intensity of β-tubulin", "setting": "F-11 cell line; paclitaxel 10 nM alone", "value": "decrease of the fluorescence intensity of β-tubulin"},
      {"measurement": "neurite diameter", "setting": "F-11 cell line; paclitaxel 10 nM alone", "value": "increase of neurite diameter"}
    ]},
    {"smiles": "CC(C)Cc1ccc([C@@H](C)C(=O)NS(C)(=O)=O)cc1", "note": "[DF1681B, R(−)-2-(4-isobutylphenyl)propionyl methansulfonamide]", "values": [
      {"measurement": "cold allodynia (number of paw withdrawals) vs animals treated with vehicle", "setting": "Male Wistar rats [1]; [5]", "value": "No additional antiallodynic effect"},
      {"measurement": "cold allodynia (number of paw withdrawals) vs animals treated with vehicle", "setting": "Male Wistar rats [1]; DF1681B continuous subcutaneous infusion from day -3 to day +11, days 5 (P<0.01), 7 (P<0.001), 10 (P<0.001)", "value": "significant reduction of cold allodynia"},
      {"measurement": "cold allodynia (number of paw withdrawals)", "setting": "Male Wistar rats [2]; DF1681B continuous subcutaneous infusion 8 mg/hr/kg from day -3, day 3", "value": "did not show antiallodynic effect"},
      {"measurement": "cold allodynia (number of paw withdrawals)", "setting": "Male Wistar rats [2]; DF1681B continuous subcutaneous infusion 8 mg/hr/kg from day -3, days 5, 7, 10, 14, 21", "value": "significant reduction of cold allodynia"},
      {"measurement": "mechanical allodynia (paw withdrawal threshold)", "setting": "Male Wistar rats [3]; DF1681B continuous subcutaneous infusion 8 mg/hr/kg from day -3", "value": "significant antiallodynic effect"},
      {"measurement": "mechanical allodynia (paw withdrawal threshold) vs animals treated with vehicle", "setting": "Male Wistar rats [4]; DF1681B continuous subcutaneous infusion by osmotic pump from day -3 to day +11, days 5 (P<0.01), 7 (P<0.001), 10 (P<0.001)", "value": "significant reduction of mechanical allodynia"},
      {"measurement": "mechanical allodynia (paw withdrawal threshold) vs animals treated with vehicle", "setting": "Male Wistar rats [4]; [5]", "value": "No additional antiallodynic effect"}
    ]},
    {"smiles": "CC(C)(C(=O)[O-])c1ccc(Nc2nc(C(F)(F)F)cs2)cc1.[Na+]", "note": "[DF2726A, 2-methyl-2-(4-{[4-(trifluoromethyl)-1,3-thiazol-2-yl]amino}phenyl)propanoic acid sodium salt]", "values": [
      {"measurement": "cold allodynia (number of paw withdrawals) vs animals treated with vehicle", "setting": "Male Wistar rats [1]; [6]", "value": "No additional antiallodynic effect"},
      {"measurement": "cold allodynia (number of paw withdrawals) vs animals treated with vehicle", "setting": "Male Wistar rats [1]; [7]", "value": "significant reduction of cold allodynia"},
      {"measurement": "cold allodynia (number of paw withdrawals)", "setting": "Male Wistar rats [2]; DF2726A 30 mg/kg/os for 24 consecutive days from day -3, day 3", "value": "did not show antiallodynic effect"},
      {"measurement": "cold allodynia (number of paw withdrawals)", "setting": "Male Wistar rats [2]; DF2726A 30 mg/kg/os for 24 consecutive days from day -3, days 5, 7, 10, 14, 21", "value": "significant reduction of cold allodynia"},
      {"measurement": "mechanical allodynia (paw withdrawal threshold)", "setting": "Male Wistar rats [3]; DF2726A 30 mg/kg/os for 24 consecutive days from day -3", "value": "significant antiallodynic effect"},
      {"measurement": "mechanical allodynia (paw withdrawal threshold) vs animals treated with vehicle", "setting": "Male Wistar rats [4]; [6]", "value": "No additional significant antiallodynic effect"},
      {"measurement": "mechanical allodynia (paw withdrawal threshold) vs animals treated with vehicle", "setting": "Male Wistar rats [4]; [7]", "value": "significant reduction of mechanical allodynia"}
    ]},
    {"smiles": "CC(C)Cc1ccc([C@@H](C)C(=O)NS(C)(=O)=O)cc1", "note": "[reparixin, R-(−)-2-(4-isobutylphenyl)propionyl methanesulfonamide]", "values": [
      {"measurement": "acetylated α-tubulin (marker of stable microtubules), immunofluorescence", "setting": "F-11 cell line; [8]", "value": "acetylated α-tubulin appears similar to the control"},
      {"measurement": "increased neurite thickness induced by paclitaxel treatment", "setting": "F-11 cell line; [8]", "value": "able to abolish"},
      {"measurement": "α-tubulin and β-tubulin immunofluorescence (dimer formation)", "setting": "F-11 cell line; [8]", "value": "able to counteract the effect of paclitaxel alone on dimer formation"}
    ]}
  ]
}
